From patent US20070225240A1, “Screening Assay and Treatment” (priority 2003, published 2007)
Like-named read-outs stand apart in the source and are kept apart here.

What was measured:
[1] = tested on: transactivation function of p53; test: Transactivation assay, bax-luciferase reporter, Saos2 cells; type: cell-based; conditions: EGF 20 ng/ml + 20% FCS, UO126 20 μM
Method: FIG. 27 Endogenous MAPK is necessary for ASPP1 and ASPP2 to stimulate the activity of p53. (A) Saos2 cells were co-transfected with bax-luciferase, ASPP2 and p53. After transfection, medium containing EGF (20 ng/ml) and 20% FCS were added to the cells, in the presence or absence of the MAPK inhibitor UO126 (20 μM). The negative control contained an equal volume of DMSO. […] (B) The putative MAPK phosphorylation sites of ASPP1 and ASPP2 were mutated to alanine, to generate ASPP1 (S671A), ASPP1 (S746), ASPP2 (S698A) and ASPP2 (S827A). Wild-type and mutant ASPP2 (B) or ASPP1 (C) were co-transfected with p53 and Bax-luciferase reporter in the presence or absence of RafCX (B) or K-rasV12 (C) in Saos2 cells, as indicated. Expression levels of ASPP1, p53 and K-rasV12 are shown in the right panel. PCNA was used as a loading control. The graph represents the fold over p53 and ASPP1 or ASPP2 taken from three independent experiments. FCS, foetal calf serum; EGF, epidermal growth factor; and
Saos2 cells (7×10^5) were plated 24 hours prior to transfection in 6-cm-diameter dishes. All transactivation assays contained 1 μg of reporter plasmid. […] The fold increase of p53 and ASPP by HRasV12/K-RasV12/RafCX was determined by the activity of p53 and ASPP in combination with RasV12/RafCX divided by the activity of p53 and ASPP alone.

ASPP2 [2] = conditions: cells treated with UO126, cell line not stated
ASPP1 and ASPP2 = tested on: ASPP1 and ASPP2
Method: (§1) Wild-type ASPP2 (A) or mutant ASPP2 (S827A) (B) were transfected in Saos2 cells in the presence or absence of H-rasv12. 16 hours after transfection, the cells were treated with cycloheximide (50 μg/ml) and lysates were made at the times indicated after cycloheximide treatment. The expression of ASPP2 and H-rasV12 were detected with antibodies V5 or HA, respectively. Actin was used as a loading control. (C) MCF7 cells were starved of serum for 24 hours in 0.5% FCS before treatment with 50 μg/ml cycloheximide (CHX) and 20% FCS and EGF, in the presence (right panel) or absence (left panel) of UO126 for the times indicated. 4 mg of lysate was immunoprecipitated with anti-ASPP2 antibody DX54.10 and the presence of ASPP2 was detected by Western blot with the polyclonal ASPP2/77 antibody (top lanes). Phosphorylated MAPK was detected with phospho-specific MAPK antibody and the total MAPK was detected with a MAPK antibody. The intensity of the. ASPP2 protein immunoprecipitated was quantified and the bands at 0 hours of CHX addition was set as 100 for both cells, as shown by the graph (right panel). (D) MDA Panc3 cells were treated with 50 μg/ml cycloheximide, 20 μM UO126 or both cycloheximide and UO126 for the times indicated. The lysate was resolved on SDS-PAGE gels and ASPP1 and ASPP2 protein levels were detected with mAbASPP1.54.2 and DX54.10 antibodies, respectively, and Mcl-1 was detected with an anti-Mcl1 polyclonal antibody.
(§2) Cells were either transfected with the appropriate expression plasmids or treated with 20 ng/ml EGF and 20 μM UO126 as indicated, the day prior to cycloheximide treatment. Cycloheximide was added to cells at a final concentration of 50 μg/ml in the appropriate medium. Cells were harvested and lysed at the time points indicated.

ASPP2 [3] = conditions: MCF7, 20% FCS and EGF, cycloheximide 50 μg/ml, with versus without UO126
Method: as §1, §2

[4] = MDA Panc3, cycloheximide 50 μg/ml + UO126 20 μM compared to cycloheximide alone

N#CC(=C(/N)Sc1ccccc1N)/C(C#N)=C(/N)Sc1ccccc1N [UO126]
transactivation function of p53 when ASPP2 was present ([1]; p53 + ASPP2): significantly inhibited | transactivation function of p53 alone ([1]; p53 without ASPP2): small effect | ASPP2 protein levels (ASPP2 [2]): decrease in ASPP2 protein levels | ASPP1 expression levels (ASPP1 and ASPP2; [4]): significantly decreased | ASPP2 expression levels (ASPP1 and ASPP2; [4]): significantly decreased | Mcl-1 stability (control) (ASPP1 and ASPP2; MDA Panc3, cycloheximide, presence or absence of UO126): no difference in its stability | ASPP2 protein levels (ASPP2 [3]): significantly decreased
